From paper PMC11674800, “Second-Generation Antipsychotics Induce Metabolic Disruption in Adipose Tissue-Derived Mesenchymal Stem Cells Through an aPKC-Dependent Pathway” (Cells, 2024)
One block for each compound: values may come before it. Numbered stars: 1 amine (or outer) side, 2 acyl side, 3 side chain; on linkers, the order of the positions; unused ones are H or OH. Bridge positions count the residues as written; N and C are the ends. Square brackets hold non-standard residues; d marks the D form. Peptide text beside a SMILES is read from it. X1 = CC(=O)NC(C(=O)OC(C(C)C)C(N[*:1])C(=O)[*:2])C(O)C(C)C; PhLac = O=C(O)[CH](O)Cc1ccccc1; NMeT = CN[CH](C(=O)O)[CH](C)O; NMeA = CN[CH](C)C(=O)O; NMeDha = C=C(NC)C(=O)O

Key:
[1] = system: ADSCs; test: Acidic vesicle quantification (Lysotracker); assay type: cell-based, human; details: for effect of co-treatment on acidic vesicle accumulation in clozapine-treated cells: clozapine 5 µM; for effect of co-treatment on acidic vesicle accumulation in olanzapine-treated cells / reduction of olanzapine-induced accumulation of acidic vesicles: olanzapine 5 μM; for reduction of olanzapine-induced accumulation of acidic vesicles: plus inhibitor 10 μM
Protocol: After treatment, the medium was removed, and the cells were stained with 50 nM Lysotracker Deep Red (Invitrogen, Waltham, MA, USA) and 5 μg/mL Hoechst 33342 (Sigma). Staining was conducted in the dark at 37 °C for 30 min. Fluorescence signals were captured using a FLoid Cell Imaging Station (Life Technology, Carlsbad, CA, USA). The ratio of Lysotracker red signal to blue nuclear signal was quantified using ImageJ software. For acidic vesicle rescue experiments, ADSCs were plated at a concentration of 10,000 cells per well in 48-well plates.

[2] = system: 3T3L1 cells; test: PA accumulation in cells transfected with DOCK2-Pii; assay type: cell-based, mouse; details: olanzapine 5 μM, 16 h, plus inhibitor
Protocol: Transfection was carried out using Lipofectamine 3000 (Thermo Fisher Scientific, Waltham, MA, USA), following the manufacturer’s instructions. The cells were incubated with the plasmid for 24 h to ensure successful transfection and plasmid expression and were used for experiments 48 h post-transfection.

[3] = system: TFEB; test: TFEB nuclear localization (confocal microscopy); assay type: cell-based, human; details: olanzapine 5 μM plus inhibitor
Protocol: (§1) For INSRβ endocytosis experiments, the cells were stimulated with 50 ng/mL insulin for 15 min. For transferrin endocytosis experiments, the cells were incubated with 25 μg/mL Transferrin Texas Red for 5 min. After treatment, the cells were washed with PBS and fixed with 4% PFA for 10 min at room temperature, followed by an additional PBS wash. The cells were then permeabilized by incubating them with cold HEPES-Triton X-100 buffer for 5 min at 4 °C. After permeabilization, the cells were incubated with primary antibodies for 30 min, followed by incubation with Alexa Fluor 488- or 546-conjugated secondary antibodies (Invitrogen, Waltham, MA, USA) and phalloidin, labeled with either Alexa Fluor 546 or 633 (Invitrogen Waltham, MA, USA) for 30 min. After incubation, coverslips were mounted on glass slides using a mounting medium. Images were acquired using a confocal microscope (Leica TCS SP8, Wetzlar, Germany) and analyzed using ImageJ (v 1.52a) software in order to quantify and analyze the fluorescence signals.

[4] = system: Gas receptors; set-up: method as in PMID 33152337; details: acts as a suramin analog; cited from earlier work
[5] = system: PKCζ; test: PKC activation (Western blot, P-PKCζ T560 immunofluorescence); assay type: cell-based, human; details: 16 h
Protocol: (§2) After treatments, whole-cell lysates were prepared using RIPA lysis buffer supplemented with protease inhibitors (AEBSF, aprotinin, bestatin, E-64, EDTA, leupeptin, Sigma-Aldrich, Saint Louis, MO, USA) and orthovanadate (Sigma-Aldrich, Saint Louis, MO, USA). The proteins in the lysates were collected and quantified using the Pierce BCA protein assay kit (Thermo Fisher Scientific, Waltham, MA, USA). Subsequently, the proteins were denatured by heating at 95 °C for 5 min in the presence of 2% Sodium Dodecyl Sulfate (SDS, Sigma-Aldrich, Saint Louis, MO, USA), 150 mM dithiothreitol (DTT, Sigma-Aldrich, Saint Louis, MO, USA), and 0.01% bromophenol blue (Sigma-Aldrich, Saint Louis, MO, USA). The samples were then analyzed using SDS-PAGE (SDS-Polyacrylamide Gel Electrophoresis) and Western blotting (WB).
as §1

[6] = system: LC3B; test: Autophagy induction (LC3B Western blot, LAMP1/LC3B colocalization); assay type: cell-based, human; details: 16 h treatment
Protocol: as §2, §1

[7] = system: ADSCs; test: Vacuolization assay; assay type: cell-based, human; details: 5 μM, 4 h
Protocol: After 4 h, pictures were acquired using a phase contrast microscope (DMi1, Leica, Wetzlar, Germany).

[8] = system: ADSCs; details: 7 days; 1 to 50 μM
[9] = system: ADSCs; test: Phospholipidosis assay (LipidTox Green); details: 5 μM, 16 h
Protocol: The cells were stained with 1X LipidTox Green (Thermo Fisher Scientific, Waltham, MA, USA) for 16 h to visualize lipid content. […] The cells were then washed with PBS and fixed with 4% paraformaldehyde for 15 min in the dark.

Compound: Cn1cnc(N)c2ncnc1-2 [3-MA, 3-methyladenine]
effect of co-treatment on acidic vesicle accumulation in clozapine-treated cells ([1]; 16 h, plus inhibitor): significantly reduced
effect of co-treatment on acidic vesicle accumulation in olanzapine-treated cells ([1]; 16 h, plus inhibitor): not seen

Compound: CC1CCc2c(cc(Br)c(F)c2Br)N1C=O (centres unmarked) [CE3F4]
effect of co-treatment on PA levels in olanzapine-treated cells [2]: markedly reduced
reduction of olanzapine-induced accumulation of acidic vesicles ([1]; 16 h): at least 50%

Compound: C[C@@H]1C[C@@H]([C@H](O)CC2CC(=O)NC(=O)C2)C(=O)[C@@H](C)C1 [CHX, cycloheximide]
effect of co-treatment on acidic vesicle accumulation (Lysotracker) in both olanzapine- and clozapine-treated cells ([1]; SGAs 5 µM, 16 h, plus inhibitor): significant reduction

Compound: O=C(NCCN1CCC(n2c(=O)[nH]c3ccccc32)CC1)c1cc2cc(F)ccc2[nH]1 [FIPI]
effect of co-treatment on PA levels in olanzapine-treated cells [2]: significantly reduced
effect of co-treatment on acidic vesicle accumulation in olanzapine-treated cells ([1]; 16 h, plus inhibitor): significantly reduced

Compound: CN(C)CCCn1cc(C2=C(c3c[nH]c4ccccc34)C(=O)NC2=O)c2ccccc21 [Go6850]
effect of co-treatment on acidic vesicle accumulation in clozapine-treated cells ([1]; 16 h, plus inhibitor): only partially reduced

Compound: CN1CCN(C(=O)C2C(C(=O)O)[C@H]3CC[C@@H]2O3)CC1 (some centres unmarked) [LB100]
effect of co-treatment on acidic vesicle accumulation in olanzapine-treated cells ([1]; 16 h, plus inhibitor): significant reduction
effect of co-treatment on TFEB nuclear localization induced by olanzapine [3]: complete abrogation

Compound: Cc1nc2sccn2c(=O)c1CCN1CCC(=C(c2ccccc2)c2ccc(F)cc2)CC1 [R59022]
effect of co-treatment on PA levels in olanzapine-treated cells [2]: did not affect
effect of co-treatment on acidic vesicle accumulation in olanzapine-treated cells ([1]; 16 h, plus inhibitor): did not affect

Compound: Nc1ncnc2c1ncn2C1CCCO1 (centres unmarked) [SQ22]
reduction of olanzapine-induced accumulation of acidic vesicles ([1]; 16 h): at least 50%

Compound: C=C1C(=O)NC(C)C(=O)N(C)C(C)C(=O)NC(C(OC(=O)C(NC(C)=O)C(O)C(C)C)C(C)C)C(=O)N(C)C(C(C)OC)C(=O)OC(C)C(NC(C)=O)C(=O)OC(Cc2ccccc2)C(=O)N1C (centres unmarked) [YM254890] (Ac-T[PhLac][NMeDha]A[NMeA][X1][NMeT](Me); ester 1-C; configuration not given here)
concentrations blocking Gas receptors [4]: below 10 μM
effect of co-treatment on PA levels in olanzapine-treated cells [2]: markedly reduced
PKCζ phosphorylation in olanzapine-treated cells, co-treatment ([5]; olanzapine 5 μM, plus inhibitor): diminished
effect of co-treatment on acidic vesicle accumulation in olanzapine-treated cells ([1]; 16 h, plus inhibitor): strongest effect
reduction of olanzapine-induced accumulation of acidic vesicles ([1]; 16 h): at least 50%

Compound: CN1CCN(C2=Nc3cc(Cl)ccc3Nc3ccccc32)CC1 [clozapine]
colocalization of LAMP1 with LC3B [6]: increased colocalization
conversion of LC3B-I to LC3B-II [6]: significantly increased
canonical PKCs (cPKCs) and atypical PKCζ activation state ([5]; 5 μM, Western blot): activation
acidic compartment accumulation (Lysotracker staining) ([1]; 0.5-10 µM, 24 h, 72 h, 7 days): progressive time- and dose-dependent increase
concentrations at which acidic compartment accumulation was observed ([1]; ADSCs): below 1 µM
vacuolization induction [7]: absent
concentrations showing significant toxicity [8]: above 25 μM

vacuolization induction [7]: prominently observed
Compound: CC(C)(C)c1ccc(C(=O)CCCN2CCC(OC(c3ccccc3)c3ccccc3)CC2)cc1 [ebastine]

vacuolization induction [7]: prominently observed
Compound: CNCCC(Oc1ccc(C(F)(F)F)cc1)c1ccccc1 (centres unmarked) [fluoxetine]
phospholipidosis induction [9]: prominently observed

Compound: Cc1ccc(C(=O)Nc2ccc(S(=O)(=O)O)c3cc(S(=O)(=O)O)cc(S(=O)(=O)O)c23)cc1NC(=O)c1cccc(NC(=O)Nc2cccc(C(=O)Nc3cc(C(=O)Nc4ccc(S(=O)(=O)O)c5cc(S(=O)(=O)O)cc(S(=O)(=O)O)c45)ccc3C)c2)c1 [suramin]
reduction of olanzapine-induced accumulation of acidic vesicles ([1]; 16 h): at least 50%
